5 molecules from ChEMBL document CHEMBL5154677, “On-Demand Activation of a Bioorthogonal Prodrug of SN-38 with Fast Reaction Kinetics and High Releasing Efficiency In Vivo” (J Med Chem, 2022) can be followed below.

Each structure is given as a SMILES string. Converted amounts (≈) assume the structure as drawn. A value given as a limit tells only on which side of the number the result lay.

Series [1] in a line: Cytotoxicity against HEK293T cells assessed as reduction in cell viability measured after 72 hrs by CCK-8 assay. Type of series: toxicity, cell-based, HEK-293T. The settings on record: human.
Series [2] can be described thus: Stability of prodrug in PBS at pH 7.4 assessed as 7-hydroxylcoumarin formation at 1 uM measured after 24 hrs by HPLC analysis. Type of series: physicochemical. The settings on record: buffer, pH 7.4, 24 h.
Series [3] is described as follows: Solubility of compound in PBS. The class given is physicochemical. The settings on record: buffer.
Series [4] concerns A549. Briefly: Cytotoxicity against human A549 cells assessed as reduction in cell viability measured after 72 hrs by CCK-8 assay. The class given is functional, cell-based. The settings on record: A549, 72 h. (In general: Formazan colour is commonly taken as a measure of viable cells.)
The test system of series [5] is A549. Briefly: Cytotoxicity against human A549 cells assessed as cell growth inhibition incubated for 120 hrs by CCK-8 assay. Type of series: functional, cell-based. The conditions noted are these: A549, 120 h.
Series [6] can be described thus: Dissociation constant , pKa of the compound. The class given is physicochemical.
Series [7] in a line: Stability of prodrug in PBS at pH 7.4 assessed as retention time of drug released measured after 24 hrs by LC-MS analysis. Type of series: physicochemical. The conditions noted are these: buffer, pH 7.4, 24 h.
A short description of series [8]: Stability of the prodrug in PBS at pH 6.5 assessed as suppression of hydrolytic opening of the lactone ring by LC-MS analysis. The class given is physicochemical. The conditions noted are these: buffer.
Series [9] can be described thus: Drug uptake in human A549 cells assessed as drug internalization by measuring blue fluorescence at 100 uM incubated for 1 hr by DAPI staining based confocal fluorescence microscopy. Type of series: ADME, cell-based. The settings on record: a549, 1 h.
The nature of series [10]: Drug uptake in human A549 cells assessed as drug internalization by measuring increase in fluorescence intensity at 100 uM incubated for 1 hr by FITC staining based confocal fluorescence microscopy. The class given is ADME, cell-based. The conditions noted are these: a549, 1 h.
Series [11] is described as follows: Prodrug activation in human A549 cells assessed as SN-38 release by measuring increase in blue fluorescence intensity at 100 uM in presence of bis(pinacolato)diboron incubated for 1 hr by DAPI staining based confocal fluorescence microscopy. The class given is cell-based. The settings on record: a549, 1 h.
The nature of series [12]: Prodrug activation in human A549 cells assessed as SN-38 release by measuring increase in yellow fluorescence at 100 uM in presence of bis(pinacolato)diboron incubated for 1 hr by FITC staining based confocal fluorescence microscopy. The class given is cell-based. The settings on record: a549, 1 h.
Series [13] deals with A549. The experiment in a line: Cytotoxicity against human A549 cells assessed as reduction in cell viability incubated for 72 hrs in presence of bis(pinacolato)diboron by CCK-8 assay. The class given is functional, cell-based. The conditions noted are these: A549, 72 h.
Series [14] can be described thus: Prodrug activation in human A549 cells assessed as increase in yellow fluorescence at 100 nM incubated for 72 to 120 hrs using FITC staining based laser confocal fluorescence microscopy. The class given is cell-based. The settings on record: a549, 0.1 µM, time 72-120 hrs.
Series [15] in a line: Prodrug activation in human A549 cells assessed as reduction in blue fluorescence at 100 nM incubated for 72 to 120 hrs using DAPI staining based laser confocal fluorescence microscopy. The conditions noted are these: a549, 0.1 µM, time 72-120 hrs. The class given is cell-based.
Series [16] has as its system A549. The experiment in a line: Cytotoxicity against human A549 cells assessed as cell growth inhibition incubated for 120 hrs in presence of bis(pinacolato)diboron by CCK-8 assay. The class given is functional, cell-based. The settings on record: A549, 120 h.
Series [17] can be described thus: Prodrug activation in human A549 cells xenografted in nude mouse assessed as drug release by measuring increase in yellow fluorescence at 5 mg/kg, iv in presence of bis(pinacolato)diboron administered every 5 mins for 1 hr by FITC staining based confocal laser scanning microscopy. Type of series: organism-based. The conditions noted are these: in vivo. A general note: A xenograft is tissue or cells of one species grown in another, often human tumour cells in immunodeficient mice.

A short description of series [18]: Prodrug activation in human A549 cells xenografted in nude mouse assessed as drug release by measuring reduction in blue fluorescence at 5 mg/kg, iv in presence of bis(pinacolato)diboron administered every 5 mins for 1 hr by DAPI staining based confocal laser scanning microscopy. The settings on record: in vivo. The class given is organism-based.
The nature of series [19]: Prodrug activation in human A549 cells xenografted in nude mouse assessed as drug release by measuring increase in yellow fluorescence at 5 mg/kg, iv administered every 5 mins for 1 hr by FITC staining based confocal laser scanning microscopy. The class given is organism-based. The conditions noted are these: in vivo.

Turning to `CN(C)c1ccc(CO)cc1`, the half-maximal inhibitory concentration (IC50) at 72 h in [1] was above 100 µM.

Regarding `C[N+](C)([O-])c1ccc(COc2ccc3ccc(=O)oc3c2)cc1`, the Stability result in series [2] was “Stable”.

On to `CCc1c2c(nc3ccc(O)cc13)-c1cc3c(c(=O)n1C2)COC(=O)[C@]3(O)CC` [7-ETHYL-10-HYDROXYCAMPTOTHECIN], for which, in series [3], the solubility was 0.01101 µM (≈ 0.00432 µg/mL). Besides, the 50% inhibitory concentration (IC50) in the series on A549 [4] worked out at 0.0119 µM; in the series with A549 [5], 0.0038 µM. Also, in series [1], the concentration for half-maximal inhibition (IC50) at 72 h amounted to 0.0142 µM. Besides, the pKa in [6] was 9.2.

With `Nc1ccc(CO)cc1`, the pKa in series [6] stood at 9.68.

The molecule `CCc1c2c(nc3ccc(OCc4ccc([N+](C)(C)[O-])cc4)cc13)-c1cc3c(c(=O)n1C2)COC(=O)[C@]3(O)CC` registered a solubility in series [3] of 3.2736 µM (≈ 1.77 µg/mL). Also, in [7], the Retention_time was found to be 1.8 min. Further, in series [8], the Stability entry is given as “Stable”. Moreover, the Drug uptake entry in [9] and in [10] was “Active” throughout. Further, the Drug metabolism result in series [11], in series [12], in [14], in series [15], in [17] and in [18] was “Metabolite_Detected” each time. Besides, the Drug metabolism result in series [19] is recorded as “Metabolite_Notdetected”. Besides, the 50% inhibitory concentration (IC50) with A549 [4] was 0.128 µM; in the series with A549 [13], 0.0296 µM; with A549 [5] it was 0.0171 µM; in the series with A549 [16], 0.0092 µM. Besides, the IC50 at 72 h in series [1] was determined as 0.0663 µM.

One may read the IC50 as the concentration that inhibits the measured activity by half. The solubility is how much of the substance goes into solution per volume. A high value points to much dissolved substance. By pKa is commonly meant the negative logarithm of the acid dissociation constant. Read a low pKa as a group that gives up its proton readily.
